Measurements taken from US20240158392A1 (Janssen Biotech, Inc., priority 2021, published 2024).

Key:
[1] = molecular target: T1, SIK2 (Homo sapiens, UniProt Q9H0K1); assay: SIK2 Enzymatic Assay High Version 2 (High ATP); format: biochemical
Outline: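 At room temperature, enzyme (6 nM, 2× final) was preincubated with compound for 30 min, then 6 mM ATP and 400 μM HDAC5tide (both 2× final) were added for 2 h. ADP formed was measured by ADP-Glo Max (2 h reagent, 1 h detection) using luminescence.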

[2] = molecular target: T1, SIK2; assay: SIK2 Enzymatic Assay Version 1 (ADP Glo); format: biochemical; details: enzyme 0.6 nM, 160 μM ATP and 140 μM HDAC5tide (each 2× final concentration); 30 minutes pre-incubation, 4 hours; ADPGlo luminescence; read-out: SIK2 ADP Glo IC50 (μM) (Test Example 1)
Outline: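 Kinase activity read as ADP production by ADP-Glo luminescence, all steps at room temperature. Compound and SIK2 (0.6 nM, a 2× concentration) were preincubated 30 min; ATP-only wells lacking peptide were the negative control; depletion 40 min, detection ≥30 min.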

T1 sequence (Q9H0K1 whole entry, species assumed): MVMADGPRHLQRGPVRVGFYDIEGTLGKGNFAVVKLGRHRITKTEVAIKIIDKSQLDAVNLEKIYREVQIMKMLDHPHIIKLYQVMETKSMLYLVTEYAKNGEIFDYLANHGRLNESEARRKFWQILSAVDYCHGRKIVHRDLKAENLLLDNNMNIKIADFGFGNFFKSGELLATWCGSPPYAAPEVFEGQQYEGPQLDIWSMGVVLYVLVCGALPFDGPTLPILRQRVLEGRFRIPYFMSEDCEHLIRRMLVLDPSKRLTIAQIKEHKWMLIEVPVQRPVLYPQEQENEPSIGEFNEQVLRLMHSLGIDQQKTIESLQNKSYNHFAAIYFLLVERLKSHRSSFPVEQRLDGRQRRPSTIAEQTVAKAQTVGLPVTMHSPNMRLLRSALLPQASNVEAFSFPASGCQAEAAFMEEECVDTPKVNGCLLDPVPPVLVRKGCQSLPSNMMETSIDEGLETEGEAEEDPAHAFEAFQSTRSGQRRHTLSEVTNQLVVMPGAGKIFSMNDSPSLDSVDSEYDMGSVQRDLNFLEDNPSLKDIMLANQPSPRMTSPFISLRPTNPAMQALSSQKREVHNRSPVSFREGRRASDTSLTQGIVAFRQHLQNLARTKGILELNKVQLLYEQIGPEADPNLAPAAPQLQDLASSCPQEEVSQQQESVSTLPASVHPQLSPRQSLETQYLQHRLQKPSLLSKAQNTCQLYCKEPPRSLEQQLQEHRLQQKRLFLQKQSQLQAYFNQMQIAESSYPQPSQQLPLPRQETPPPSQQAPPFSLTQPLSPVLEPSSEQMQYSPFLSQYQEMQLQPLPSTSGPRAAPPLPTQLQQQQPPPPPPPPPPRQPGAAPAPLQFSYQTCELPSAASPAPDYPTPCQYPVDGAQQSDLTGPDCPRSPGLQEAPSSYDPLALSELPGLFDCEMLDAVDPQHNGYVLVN

Structure (SMILES) | IC50 [1] | IC50 [2]
CN1CC[C@@H](COc2cnc(C#N)cc2-c2ccn3nc(Nc4ccccn4)cc3c2)C1 [Example 107, 5-[[(3R)-1-methylpyrrolidin-3-yl]methoxy]-4-[2-(2-pyridylamino)pyrazolo[1,5-a]pyridin-5-yl]pyridine-2-carbonitrile] | 40.1 nM | 0.0022 µM
N#Cc1cc(-c2ccn3nc(NC(=O)C4CC4)cc3c2)c(OCC23CCC(CC2)C(=O)N3)cn1 [Example 40, N-[5-[2-cyano-5-[(2-oxo-3-azabicyclo[2.2.2]octan-4-yl)methoxy]-4-pyridyl]pyrazolo[1,5-a]pyridin-2-yl]cyclopropanecarboxamide] | 87.6 nM | 0.0047 µM
N#Cc1ccc(OC[C@H]2CNCCO2)c(-c2ccn3nc(NC(=O)C4CC4)cc3c2)c1 [Example 101, N-[5-[5-cyano-2-[[(2R)-morpholin-2-yl]methoxy]phenyl]pyrazolo[1,5-a]pyridin-2-yl]cyclopropanecarboxamide] | 21.9 nM | 0.00263 µM
CN1CC[C@@H](COc2cnc(C#N)cc2-c2ccn3nc(Nc4ccncc4)cc3c2)C1 [Example 105, 5-[[(3R)-1-methylpyrrolidin-3-yl]methoxy]-4-[2-(4-pyridylamino)pyrazolo[1,5-a]pyridin-5-yl]pyridine-2-carbonitrile] | 203 nM | 0.00951 µM
CN1CC[C@@H](COc2ccc(C#N)cc2-c2ccn3nc(NC(=O)C4CC4)cc3c2)C1 [Example 100, N-[5-[5-cyano-2-[[(3R)-1-methylpyrrolidin-3-yl]methoxy]phenyl]pyrazolo[1,5-a]pyridin-2-yl]cyclopropanecarboxamide] | 105 nM | 0.00573 µM
CN1CC(COc2cnc(C#N)cc2-c2ccn3nc(NC(=O)C4CC4)cc3c2)C1 [Example 32, N-[5-[2-cyano-5-[(1-methylazetidin-3-yl)methoxy]-4-pyridyl]pyrazolo[1,5-a]pyridin-2-yl]cyclopropanecarboxamide] | 81.3 nM | 0.0034 µM
N#Cc1ccc(OC[C@@H]2CNCCO2)c(-c2ccn3nc(NC(=O)C4CC4)cc3c2)c1 [Example 103, N-[5-[5-cyano-2-[[(2S)-morpholin-2-yl]methoxy]phenyl]pyrazolo[1,5-a]pyridin-2-yl]cyclopropanecarboxamide] | 34.5 nM | 0.00362 µM
N#Cc1cc(-c2ccn3nc(NC(=O)C4CC4)cc3c2)c(OCC2(O)CCC2)cn1 [Example 41, N-[5-[2-cyano-5-[(1-hydroxycyclobutyl)methoxy]-4-pyridyl]pyrazolo[1,5-a]pyridin-2-yl]cyclopropanecarboxamide] | 58.5 nM | 0.00243 µM
N#Cc1cc(-c2ccn3nc(NC(=O)C4CC4)cc3c2)c(OCC2CNC2)cn1 [Example 23, N-[5-[5-(azetidin-3-ylmethoxy)-2-cyano-4-pyridyl]pyrazolo[1,5-a]pyridin-2-yl]cyclopropanecarboxamide] | 16.3 nM | 0.0021 µM
Cc1cc(-c2ccn3nc(NC(=O)C4CC4)cc3c2)c(OC2CN(C)C2)cn1 [Example 115, N-(5-(2-methyl-5-((1-methylazetidin-3-yl)oxy)pyridin-4-yl)pyrazolo[1,5-a]pyridin-2-yl)cyclopropanecarboxamide] | 159 nM | 0.0095 µM
N#Cc1cc(-c2ccn3nc(NC(=O)C4CC4)cc3c2)c(OC[C@H]2CC[C@H](O)CC2)cn1 [Example 53, trans-N-(5-(2-Cyano-5-(((1r,4r)-4-hydroxycyclohexyl)methoxy)pyridin-4-yl)pyrazolo[1,5-a]pyridin-2-yl)cyclopropanecarboxamide] | 13.5 nM | 0.000641 µM
Cc1cc(-c2ccn3nc(NC(=O)C4CC4)cc3c2)c(O[C@H]2C[C@](C)(N)C2)cn1 [Example 444, N-(5-(5-((1r,3r)-3-amino-3-methylcyclobutoxy)-2-methylpyridin-4-yl)pyrazolo[1,5-a]pyridin-2-yl)cyclopropanecarboxamide] | 1.63 nM | 0.000605 µM
Cc1cc(-c2ccn3nc(NC(=O)C4CC4)cc3c2)c(OC[C@H](N)C(C)(C)C)cn1 [Example 150, N-[5-[5-[(2R)-2-amino-3,3-dimethyl-butoxy]-2-methyl-4-pyridyl]pyrazolo[1,5-a]pyridin-2-yl]cyclopropanecarboxamide] | 322 nM | 0.00644 µM
N#Cc1cc(-c2ccn3nc(NC(=O)C4CC4)cc3c2)c(O[C@@H]2CCN(CC(F)(F)F)C2)cn1 [Example 110, (R)—N-[5-[2-cyano-5-[(3R)-1-(2,2,2-trifluoroethyl)pyrrolidin-3-yl]oxy-4-pyridyl]pyrazolo[1,5-a]pyridin-2-yl]cyclopropanecarboxamide] | 2.85 nM | 0.00055 µM
Cc1cc(-c2ccn3nc(NC(=O)C4CC4)cc3c2)c(O[C@@H]2CC[C@@H](N)C2)cn1 [Example 153, N-[5-[5-[(1R,3R)-3-aminocyclopentoxy]-2-methyl-4-pyridyl]pyrazolo[1,5-a]pyridin-2-yl]cyclopropanecarboxamide] | 13.7 nM | 0.000688 µM
Cc1cc(-c2ccn3nc(NC(=O)C4CC4)cc3c2)c(O[C@@H]2CCN(C)C2)cn1 [Example 137, N-[5-[2-methyl-5-[(3R)-1-methylpyrrolidin-3-yl]oxy-4-pyridyl]pyrazolo[1,5-a]pyridin-2-yl]cyclopropanecarboxamide] | 70 nM | 0.00334 µM

Next, values leading:

IC50 [1] | IC50 [2] | Structure (SMILES)
55.6 nM | 0.00386 µM | N#Cc1ccc(OC[C@@H]2CCNC2)c(-c2ccn3nc(NC(=O)C4CC4)cc3c2)c1 [Example 476, N-[5-[5-cyano-2-[[(3R)-pyrrolidin-3-yl]methoxy]phenyl]pyrazolo[1,5-a]pyridin-2-yl]cyclopropanecarboxamide]
12.1 nM | 0.00106 µM | CC#Cc1cc(-c2ccn3nc(NC(=O)C4CC4)cc3c2)c(OC[C@@H]2CCN(C)C2)cn1 [Example 441, N-[5-[5-[[(3R)-1-methylpyrrolidin-3-yl]methoxy]-2-prop-1-ynyl-4-pyridyl]pyrazolo[1,5-a]pyridin-2-yl]cyclopropanecarboxamide]
17.9 nM | 0.0013 µM | CN1CC[C@@H](COc2cnc(Cl)cc2-c2ccn3nc(NC(=O)C4CC4)cc3c2)C1 [Example 490, N-[5-[2-chloro-5-[[(3R)-1-methylpyrrolidin-3-yl]methoxy]-4-pyridyl]pyrazolo[1,5-a]pyridin-2-yl]cyclopropanecarboxamide]
53.7 nM | 0.00366 µM | Cc1cc(-c2cn3cc(NC(=O)C4CC4)nc3cn2)c(OCC(C)(C)C#N)cn1 [Example 508, N-[6-[5-(2-cyano-2-methyl-propoxy)-2-methyl-4-pyridyl]imidazo[1,2-a]pyrazin-2-yl]cyclopropanecarboxamide]
19.5 nM | 0.00124 µM | N#Cc1cc(-c2ccn3nc(NC(=O)C4CC4)cc3c2)c(OC2CN(CC(F)(F)F)C2)cn1 [Example 590, N-[5-[2-cyano-5-[1-(2,2,2-trifluoroethyl)azetidin-3-yl]oxy-4-pyridyl]pyrazolo[1,5-a]pyridin-2-yl]cyclopropanecarboxamide]
55.5 nM | 0.00196 µM | N#Cc1cc(-c2ccn3nc(NC(=O)C4CC4)cc3c2)c(OC[C@H]2C[C@@H](Nc3ccccn3)C2)cn1 [Example 176, cis-N-[5-[2-cyano-5-[[3-(2-pyridylamino)cyclobutyl]methoxy]-4-pyridyl]pyrazolo[1,5-a]pyridin-2-yl]cyclopropanecarboxamide]
14 nM | 0.00175 µM | Cc1cc(-c2ccn3nc(Nc4ccn(C)n4)cc3c2)c(O[C@H]2CC[C@@H](O)CC2)cn1 [Example 184, cis-4-[[6-methyl-4-[2-[(1-methylpyrazol-3-yl)amino]pyrazolo[1,5-a]pyridin-5-yl]-3-pyridyl]oxy]cyclohexanol]
8.63 nM | 0.00095 µM | N#Cc1cc(-c2ccn3nc(NC(=O)C4CC4)cc3c2)c(OC[C@H]2CC[C@H](N)CC2)cn1 [Example 586, N-(5-(5-(((1r,4r)-4-aminocyclohexyl)methoxy)-2-cyanopyridin-4-yl)pyrazolo[1,5-a]pyridin-2-yl)cyclopropanecarboxamide]
15.9 nM | 0.00101 µM | Cc1cc(-c2ccn3nc(NC(=O)C4CC4)cc3c2)c(OC[C@H]2CNCCO2)cn1 [Example 166, N-[5-[2-methyl-5-[[(2R)-morpholin-2-yl]methoxy]-4-pyridyl]pyrazolo[1,5-a]pyridin-2-yl]cyclopropanecarboxamide]
12.3 nM | 0.000617 µM | Cc1cc(-c2ccn3nc(NC(=O)C4CC4)cc3c2)c(OC[C@H]2C[C@@H](N)C2)cn1 [Example 171, cis-N-[5-[5-[(3-aminocyclobutyl)methoxy]-2-methyl-4-pyridyl]pyrazolo[1,5-a]pyridin-2-yl]cyclopropanecarboxamide]
9.09 nM | 0.000627 µM | N#Cc1cc(-c2ccn3nc(NC(=O)C4CC4)cc3c2)c(O[C@@H]2CCNC2)cn1 [Example 594, N-[5-[2-cyano-5-[(3R)-pyrrolidin-3-yl]oxy-4-pyridyl]pyrazolo[1,5-a]pyridin-2-yl]cyclopropanecarboxamide]
32 nM | 0.00236 µM | Cc1cc(-c2ccn3nc(Nc4ccn(C)n4)cc3c2)c(O[C@H]2CC[C@H](O)CC2)cn1 [Example 181, trans-4-[[6-methyl-4-[2-[(1-methylpyrazol-3-yl)amino]pyrazolo[1,5-a]pyridin-5-yl]-3-pyridyl]oxy]cyclohexanol]
10.3 nM | 0.000791 µM | CN1CC[C@@H](COc2cnccc2-c2ccn3nc(NC(=O)C4CC4)cc3c2)C1 [Example 489, N-[5-[3-[[(3R)-1-methylpyrrolidin-3-yl]methoxy]-4-pyridyl]pyrazolo[1,5-a]pyridin-2-yl]cyclopropanecarboxamide]
